Experimental data as given in patent publication US20230127944A1, “BROAD-SPECTRUM CARBAPENEMS” (priority 2019, published 2023).
Converted amounts (≈) assume the structure as drawn.

Assays:
Type in all cases: cell-based
[1] = test system: S. aureus USA 300; test: broth microdilution MIC assay, S. aureus USA300; settings: Staphylococcus aureus; S. aureus USA300 (MRSA); read-out: MIC, S. aureus USA300
Description: (§1) To determine the ability of test compounds to inhibit the growth of bacterial strains, classic cell-based broth microdilution MIC assays were employed. MIC assays are performed according to CLSI methods except where otherwise noted (CLSI, 2011 and CLSI, 2009). The reference strains S. aureus ATCC 29213 (methicillin sensitive), S. aureus ATCC 33591 (methicillin-resistant), E. coli ATCC 25922 (wild-type/QC strain), P. aeruginosa ATCC 27853 (wild-type/QC strain), and the clinical isolate P. aeruginosa PA 8 were used to determine the ability of the exemplary carbapenem compounds to inhibit bacterial growth. An expanded panel of methicillin resistance S. aureus (MRSA) and Pseudomonas was also used to determine the ability of exemplary carbapenem compounds to inhibit bacterial growth across a broader representation of those species. To determine activity in MRSA and in addition to S. aureus ATCC 33591, S. aureus USA 300 and USA 600, some of the most common clones found to cause human infection, were also used. To further gauge the impact on the carbapenem compounds due to various resistance mechanisms in Pseudomonas, the following strains were included: P. aeruginosa 35151 (hyper-permeable strain), P. aeruginosa ΔmexAB-OprM (an efflux pump knockout), and P. aeruginosa Paβ-173 (a clinical isolate of reduced carbapenem susceptibility). Briefly, cryo-preserved bacterial cultures of clinical strains are streaked for isolation on appropriate agar medium, in this case Mueller Hinton II agar. Following incubation to allow formation of colonies, these plates are sealed with parafilm and stored refrigerated for up to two weeks. For preparation of assay inocula and to ensure low variability, at least 5 colonies are picked from the agar plates with an inoculating loop and aseptically transferred to a culture tube containing 3 mL of Mueller-Hinton Broth (supplemented with divalent cations to required levels based on Manufacturers' specification). The broth culture is grown for 3-5 hours at 37° C. with shaking at 200 rpm. Meanwhile, 2-fold serial dilutions of test compounds are conducted in a 96 well plate with a final volume of 75 μL per well at 2-fold the final desired concentration. After the dilution plates are set up the growing cultures are then diluted in a cuvette containing MH II broth and the optical density is measured at 600 nm. Inocula are diluted such that 75 μL of this culture in Mueller-Hinton Broth results in a starting bacterial concentration of 5×10^5 CFU/mL when added to the dilution plates. The plates are incubated 16-20 hours at 37° C. The MIC is read visually as the lowest concentration well with no bacterial growth.

[2] = test system: P. aeruginosa ΔmexAB-OprM (an efflux pump knockout); test: broth microdilution MIC assay, P. aeruginosa ΔmexAB-OprM; settings: Pseudomonas aeruginosa, read-out: MIC, P. aeruginosa ΔmexAB-OprM
Description: as §1

[3] = test system: P. aeruginosa Paeβ-17; test: broth microdilution MIC assay, P. aeruginosa Paeβ-17; settings: Pseudomonas aeruginosa, read-out: MIC, P. aeruginosa Paeβ-17
Description: as §1

[4] = test system: S. aureus ATCC 33591 (methicillin-resistant); test: broth microdilution MIC assay, S. aureus 33591; settings: Staphylococcus aureus, ATCC33591; S. aureus 33591, methicillin-resistant; read-out: MIC, S. aureus 33591
Description: as §1

[5] = test system: P. aeruginosa 35151 (hyper-permeable strain); test: broth microdilution MIC assay, P. aeruginosa 35151; settings: Pseudomonas aeruginosa, read-out: MIC, P. aeruginosa 35151
Description: as §1

[6] = test system: E. coli ATCC 25922 (wild-type/QC strain); test: broth microdilution MIC assay, E. coli 25922; settings: Escherichia coli, ATCC25922; read-out: MIC, E. coli 25922
Description: as §1

[7] = test system: S. aureus USA 600; test: broth microdilution MIC assay, S. aureus USA600; settings: Staphylococcus aureus; S. aureus USA600 (MRSA); read-out: MIC, S. aureus USA600
Description: as §1

[8] = test system: P. aeruginosa ATCC 27853 (wild-type/QC strain); test: broth microdilution MIC assay, P. aeruginosa 27853; settings: Pseudomonas aeruginosa, ATCC27853; read-out: MIC, P. aeruginosa 27853
Description: as §1

| Compound | MIC [1] [µg/mL] | MIC [2] [µg/mL] | MIC [3] [µg/mL] | MIC [4] [µg/mL] | MIC [5] [µg/mL] | MIC [6] [µg/mL] | MIC [7] [µg/mL] | MIC [8] [µg/mL] |
| --- | --- | --- | --- | --- | --- | --- | --- | --- |
| C[C@@H](O)[C@H]1C(=O)N2C(C(=O)O)=C(S[C@@H]3CCN([C@@H]4CC[C@@H](NC(=N)N)C4)C3)[C@H](C)[C@H]12 [Example 30, (4R,5S,6S)-3-(((R)-1-((1R,3R)-3-guanidinocyclopentyl)pyrrolidin-3-yl)thio)-6-((R)-1-hydroxyethyl)-4-methyl-7-oxo-1-azabicyclo[3.2.0]hept-2-ene-2-carboxylic acid] | 1 to 4 (≈ 2.29 to 9.14 µM) | 1 to 4 (≈ 2.29 to 9.14 µM) | > 32 | 8 to 32 (≈ 18.3 to 73.1 µM) | 1 to 4 (≈ 2.29 to 9.14 µM) | < 1 | 1 to 4 (≈ 2.29 to 9.14 µM) | 8 to 32 (≈ 18.3 to 73.1 µM) |
| C[C@@H](O)[C@H]1C(=O)N2C(C(=O)O)=C(SC3CN(Cc4cnc(N)nc4)C3)[C@H](C)[C@H]12 [Example 22, (4R,5S,6S)-3-((1-((2-aminopyrimidin-5-yl)methyl)azetidin-3-yl)thio)-6-((R)-1-hydroxyethyl)-4-methyl-7-oxo-1-azabicyclo[3.2.0]hept-2-ene-2-carboxylic acid] | 1 to 4 (≈ 2.47 to 9.86 µM) | 1 to 4 (≈ 2.47 to 9.86 µM) | > 32 | 8 to 32 (≈ 19.7 to 78.9 µM) | < 1 | < 1 | 1 to 4 (≈ 2.47 to 9.86 µM) | 8 to 32 (≈ 19.7 to 78.9 µM) |
| C[C@@H](O)[C@H]1C(=O)N2C(C(=O)O)=C(SC3CN(CC4CCN(C(=N)N)CC4)C3)[C@H](C)[C@H]12 [Example 26, (4R,5S,6S)-3-((1-((1-carbamimidoylpiperidin-4-yl)methyl)azetidin-3-yl)thio)-6-((R)-1-hydroxyethyl)-4-methyl-7-oxo-1-azabicyclo[3.2.0]hept-2-ene-2-carboxylic acid] | 1 to 4 (≈ 2.29 to 9.14 µM) | < 1 | 8 to 32 (≈ 18.3 to 73.1 µM) | 1 to 4 (≈ 2.29 to 9.14 µM) | < 1 | < 1 | 1 to 4 (≈ 2.29 to 9.14 µM) | 1 to 4 (≈ 2.29 to 9.14 µM) |
| C[C@@H](O)[C@H]1C(=O)N2C(C(=O)O)=C(S[C@@H]3CCN(C[C@H]4CC[C@H](N)CC4)C3)[C@H](C)[C@H]12 [Example 56, (4R,5S,6S)-3-(((R)-1-(((1R,4R)-4-aminocyclohexyl)methyl)pyrrolidin-3-yl)thio)-6-((R)-1-hydroxyethyl)-4-methyl-7-oxo-1-azabicyclo[3.2.0]hept-2-ene-2-carboxylic acid] | 1 to 4 (≈ 2.36 to 9.44 µM) | 1 to 4 (≈ 2.36 to 9.44 µM) | 8 to 32 (≈ 18.9 to 75.5 µM) | 1 to 4 (≈ 2.36 to 9.44 µM) | < 1 | < 1 | 1 to 4 (≈ 2.36 to 9.44 µM) | 1 to 4 (≈ 2.36 to 9.44 µM) |
| C[C@@H](O)[C@H]1C(=O)N2C(C(=O)O)=C(SC3CN([C@@H]4CC[C@@H](NC(=N)N)C4)C3)[C@H](C)[C@H]12 [Example 10, (4R,5S,6S)-3-((1-((1R,3R)-3-guanidinocyclopentyl)azetidin-3-yl)thio)-6-((R)-1-hydroxyethyl)-4-methyl-7-oxo-1-azabicyclo[3.2.0]hept-2-ene-2-carboxylic acid] | 1 to 4 (≈ 2.36 to 9.44 µM) | 1 to 4 (≈ 2.36 to 9.44 µM) | 8 to 32 (≈ 18.9 to 75.6 µM) | 1 to 4 (≈ 2.36 to 9.44 µM) | < 1 | < 1 | 1 to 4 (≈ 2.36 to 9.44 µM) | 8 to 32 (≈ 18.9 to 75.6 µM) |
| C[C@@H](O)[C@H]1C(=O)N2C(C(=O)O)=C(S[C@@H]3CCN(Cc4ccc(N)nc4)C3)[C@H](C)[C@H]12 [Example 25, (4R,5S,6S)-3-(((R)-1-((6-aminopyridin-3-yl)methyl)pyrrolidin-3-yl)thio)-6-((R)-1-hydroxyethyl)-4-methyl-7-oxo-1-azabicyclo[3.2.0]hept-2-ene-2-carboxylic acid] | 1 to 4 (≈ 2.39 to 9.56 µM) | 1 to 4 (≈ 2.39 to 9.56 µM) | > 32 | 8 to 32 (≈ 19.1 to 76.5 µM) | < 1 | < 1 | 1 to 4 (≈ 2.39 to 9.56 µM) | 8 to 32 (≈ 19.1 to 76.5 µM) |
| C[C@@H](O)[C@H]1C(=O)N2C(C(=O)O)=C(SC3CN([C@@H]4CC[C@H](N)C4)C3)[C@H](C)[C@H]12 [Example 6, (4R,5S,6S)-3-((1-((1R,3S)-3-aminocyclopentyl)azetidin-3-yl)thio)-6-((R)-1-hydroxyethyl)-4-methyl-7-oxo-1-azabicyclo[3.2.0]hept-2-ene-2-carboxylic acid] | 1 to 4 (≈ 2.62 to 10.5 µM) | 1 to 4 (≈ 2.62 to 10.5 µM) | 8 to 32 (≈ 21 to 83.9 µM) | 1 to 4 (≈ 2.62 to 10.5 µM) | < 1 | < 1 | 1 to 4 (≈ 2.62 to 10.5 µM) | 1 to 4 (≈ 2.62 to 10.5 µM) |
| C[C@@H](O)[C@H]1C(=O)N2C(C(=O)O)=C(S[C@@H]3CCN([C@H]4CC[C@@H](NC(=N)N)C4)C3)[C@H](C)[C@H]12 [Example 31, (4R,5S,6S)-3-(((R)-1-((1S,3R)-3-guanidinocyclopentyl)pyrrolidin-3-yl)thio)-6-((R)-1-hydroxyethyl)-4-methyl-7-oxo-1-azabicyclo[3.2.0]hept-2-ene-2-carboxylic acid] | < 1 | < 1 | 8 to 32 (≈ 18.3 to 73.1 µM) | 1 to 4 (≈ 2.29 to 9.14 µM) | < 1 | < 1 | 1 to 4 (≈ 2.29 to 9.14 µM) | 1 to 4 (≈ 2.29 to 9.14 µM) |
| C[C@@H](O)[C@H]1C(=O)N2C(C(=O)O)=C(S[C@@H]3CCN([C@H]4CC[C@@H](NC(=N)N)CC4)C3)[C@H](C)[C@H]12 [Example 34, (4R,5S,6S)-3-(((R)-1-((1S,4S)-4-guanidinocyclohexyl)pyrrolidin-3-yl)thio)-6-((R)-1-hydroxyethyl)-4-methyl-7-oxo-1-azabicyclo[3.2.0]hept-2-ene-2-carboxylic acid] | < 1 | 1 to 4 (≈ 2.21 to 8.86 µM) | 8 to 32 (≈ 17.7 to 70.9 µM) | 1 to 4 (≈ 2.21 to 8.86 µM) | < 1 | < 1 | 1 to 4 (≈ 2.21 to 8.86 µM) | 1 to 4 (≈ 2.21 to 8.86 µM) |
| C[C@@H](O)[C@H]1C(=O)N2C(C(=O)O)=C(S[C@@H]3CC[C@@H](NC4CCNCC4)C3)[C@H](C)[C@H]12 [Example 53, (4R,5S,6S)-6-((R)-1-hydroxyethyl)-4-methyl-7-oxo-3-(((1R,3R)-3-(piperidin-4-ylamino)cyclopentyl)thio)-1-azabicyclo[3.2.0]hept-2-ene-2-carboxylic acid] | 1 to 4 (≈ 2.44 to 9.77 µM) | 1 to 4 (≈ 2.44 to 9.77 µM) | 8 to 32 (≈ 19.5 to 78.1 µM) | 8 to 32 (≈ 19.5 to 78.1 µM) | < 1 | < 1 | 1 to 4 (≈ 2.44 to 9.77 µM) | 8 to 32 (≈ 19.5 to 78.1 µM) |
